Assay: Adverse events, DLTs, MTD and RP2D in phase I study CC-90010-ST-001 (NCI CTCAE v4.03)
Assay type: in vivo
Method: The primary endpoints of the study were the safety and tolerability of trotabresib, as well as the MTD and/or RP2D of trotabresib. Safety was assessed using the National Cancer Institute Common Terminology Criteria for Adverse Events v4.03[53].
The decision to evaluate additional subjects within a dose cohort, a higher dose cohort, intermediate dose cohorts, smaller dose increments, alternate dosing schedules, or declare an MTD will also be determined by the SRC, based on their review of clinical and laboratory safety […]
7.2.4. Definition of a Subject Evaluable for DLT
After the first dose is administered in any cohort during dose escalation, subjects in each cohort […]
more than one subject per day will be enrolled in a given dose escalation cohort.
A subject evaluable for DLT is defined as one that: […]
without experiencing a DLT,
Subjects non-evaluable for DLT will be replaced. Additional subjects within any dose cohort may be enrolled at the discretion of the SRC. Intra-subject dose escalation will not be allowed during the DLT assessment period.
7.2.5. Definition of Maximum Tolerated Dose (MTD) […]
of MTD is described in Section 7.2.2.
A variable dose cohort (eg, less frequent dosing) may be evaluated to accurately determine the MTD at the discretion of the SRC.
7.2.6. Definition of Dose-Limiting Toxicity (DLT) […]
used as a guide for the grading of severity of adverse events. A DLT is defined as any of the following toxicities occurring within the DLT assessment unless the event can clearly be […]
Do se-limiting toxicities are described below:
• Hyperglycemia meeting any of the following criteria:
− Grade 3 or greater fasting hyperglycemia (> 250 mg/dL) lasting > 4 days despite optimal medical treatment
(1 picture or pasted object on this page, not shown here)
− Hyperglycemia associated with diabetic ketoacidosis or nonketotic hyperosmolar coma regardless of glucose level
− Hyperglycemia that necessitates dose reduction despite dose interruption and resolution to ≤ grade 1 hyperglycemia within two weeks as described in […]
• Any Grade 4 non-hematologic toxicity of any duration
• Any non-hematologic toxicity Grade ≥ 3 EXCEPT for:
− Grade 3 diarrhea, nausea, or vomiting of ≤ 3 days duration (with optimal medical […]
− Grade 3 rash of the acneiform, pustular or maculopapular type which resolves to […]
level with resumption of study drug at the same dose (with optimal medical […]
− Grade 3 fatigue which resolves to Grade ≤ 2 within 7 days of study drug […]
the same dose (with optimal medical management).
• Hematological toxicities as follows:
− Grade 4 neutropenia lasting > 7 days
− Grade 4 thrombocytopenia lasting > 7 days, Grade ≥ 3 thrombocytopenia with clinically significant bleeding
• Any AE, Grade ≥ 2 not specified or exempt above, unless clearly determined to be unrelated to the drug, necessitating dose-level reduction during Cycle 1.
Isolated laboratory changes without associated clinical signs or symptoms (eg, hypomagnesemia, hypermagnesemia, hypoalbuminemia, hypophosphatemia, lymphocyte count increased or decreased) may not be included in this definition. These findings will be discussed and reviewed […]
7.2.7. Criteria for Dose Escalation in the Next Cohort of Subjects
During Part A, the dose escalation criteria are described in Section 7.2.2.
7.2.8. Definition of Stopping Criteria
During Part A, the dose escalation stopping rules are in Section 7.2.2.
7.2.9. Permitted Study Drug Adjustments
Dose reductions are permitted in any cycle, including Cycle 1.
• Dose reductions that occur in Cycle 1 during dose escalation will constitute DLT as […]

[1] = part A (N = 69), 02 Dec 2019 cutoff
[2] = part A (n=69), as stated in protocol section 7.2.10.1
[3] = part A, 30 mg 3-days-on/11-days off, 02 Dec 2019 cutoff
[4] = part A, 45 mg 4-days-on/24-days-off, 02 Dec 2019 cutoff

Structure (SMILES): Cn1cc(-c2cc(S(C)(=O)=O)ccc2OCC2CC2)c2ccccc2c1=O [trotabresib]
- TEAE dysgeusia [1]: 29.0%
- TEAE fatigue [1]: 24.6%
- TEAE headache [1]: 10.1%
- TEAE hyperglycemia [1]: 21.7%
- TEAE increased ALT [1]: 13.0%
- TEAE maculopapular rash [1]: 10.1%
- TEAE nausea [1]: 40.6%
- TEAE stomatitis [1]: 24.6%
- TEAE thrombocytopenia [1]: 50.7%
- TEAE vomiting [1]: 24.6%
- serious TEAE anemia [1]: 2.9%
- serious TEAE arthralgia [1]: 2.9%
- serious TEAE cognitive disorder [1]: 4.3%
- serious TEAE decreased platelet count [1]: 1.4%
- serious TEAE diarrhea [1]: 2.9%
- serious TEAE fatigue [1]: 2.9%
- serious TEAE general physical health deterioration [1]: 2.9%
- serious TEAE headache [1]: 4.3%
- serious TEAE noncardiac chest pain [1]: 2.9%
- serious TEAE thrombocytopenia [1]: 2.9%
- subjects with a TEAE leading to death (all not related) [1]: 10.1%
- subjects with at least one Grade 3 or 4 TEAE [1]: 58.0%
- subjects with at least one serious TEAE [1]: 46.4%
- subjects with at least one treatment-related Grade 3 or 4 TEAE [1]: 33.3%
- subjects with at least one treatment-related TEAE [1]: 87.0%
- subjects with at least one treatment-related serious TEAE [1]: 11.6%
- treatment-related Grade 3 or 4 TEAE anemia [1]: 4.3%
- treatment-related Grade 3 or 4 TEAE decreased platelet count [1]: 2.9%
- treatment-related Grade 3 or 4 TEAE fatigue [1]: 2.9%
- treatment-related Grade 3 or 4 TEAE hyponatremia [1]: 2.9%
- treatment-related Grade 3 or 4 TEAE increased ALT [1]: 2.9%
- treatment-related Grade 3 or 4 TEAE thrombocytopenia [1]: 13.0%
- treatment-related TEAE anemia [1]: 11.6%
- treatment-related TEAE asthenia [1]: 31.9%
- treatment-related TEAE decreased appetite [1]: 17.4%
- treatment-related TEAE dermatitis acneiform [1]: 13.0%
- treatment-related TEAE diarrhea [1]: 39.1%
- treatment-related TEAE dysgeusia [1]: 26.1%
- treatment-related TEAE fatigue [1]: 21.7%
- treatment-related TEAE hyperglycemia [1]: 11.6%
- treatment-related TEAE nausea [1]: 39.1%
- treatment-related TEAE stomatitis [1]: 23.2%
- treatment-related TEAE thrombocytopenia [1]: 46.4%
- treatment-related TEAE vomiting [1]: 17.4%
- treatment-related serious TEAE anemia [1]: 2.9%
- treatment-related serious TEAE decreased platelet count [1]: 1.4%
- treatment-related serious TEAE diarrhea [1]: 2.9%
- treatment-related serious TEAE fatigue [1]: 2.9%
- treatment-related serious TEAE thrombocytopenia [1]: 2.9%
- Grade 3 or 4 TEAE decreased platelet count [2]: 4.3%
- Grade 3 or 4 TEAE thrombocytopenia [2]: 10.1%
- TEAE decreased platelet count [2]: 18.8%
- subjects with at least one Grade 3 or 4 TEAE [2]: 49.3%
- subjects with at least one TEAE Grade 3 or 4 related to study drug [3]: 33.3%
- subjects with at least one TEAE related to study drug [3]: 66.7%
- subjects with at least one TEAE Grade 3 or 4 related to study drug [4]: 28.6%
- subjects with at least one TEAE related to study drug [4]: 85.7%
- TRAE: ALT increased (part A, any grade): 7.25%
- TRAE: Anemia (part A, any grade): 11.59%
- TRAE: Any TRAE (part A, any grade): 86.96%
- TRAE: Asthenia (part A, any grade): 31.88%
- TRAE: Decreased appetite (part A, any grade): 17.39%
- TRAE: Dehydration (part A, any grade): 0%
- TRAE: Dermatitis acneiform (part A, any grade): 13.04%
- TRAE: Diarrhoea (part A, any grade): 39.13%
- TRAE: Dysgeusia (part A, any grade): 26.09%
- TRAE: Fatigue (part A, any grade): 21.74%
- TRAE: Hyperglycemia (part A, any grade): 11.59%
- TRAE: Hypertension (part A, any grade): 1.45%
- TRAE: Hyponatremia (part A, any grade): 4.35%
- TRAE: Hypophosphatemia (part A, any grade): 2.9%
- TRAE: Nausea (part A, any grade): 39.13%
- TRAE: Neutropenia (part A, any grade): 7.25%
- TRAE: Platelet count decreased (part A, any grade): 4.35%
- TRAE: Stomatitis (part A, any grade): 23.19%
- TRAE: Thrombocytopenia (part A, any grade): 46.38%
- TRAE: Vomiting (part A, any grade): 17.39%
- TRAE: ALT increased (part A, grade 3): 1.45%
- TRAE: Anemia (part A, grade 3): 4.35%
- TRAE: Any TRAE (part A, grade 3): 26.09%
- TRAE: Asthenia (part A, grade 3): 1.45%
- TRAE: Decreased appetite (part A, grade 3): 0%
- TRAE: Dehydration (part A, grade 3): 0%
- TRAE: Dermatitis acneiform (part A, grade 3): 0%
- TRAE: Diarrhoea (part A, grade 3): 1.45%
- TRAE: Dysgeusia (part A, grade 3): 0%
- TRAE: Fatigue (part A, grade 3): 2.9%

Source: publication PMC10011554, “BET inhibitor trotabresib in heavily pretreated patients with solid tumors and diffuse large B-cell lymphomas” (Nature Communications, 2023)
